# Results reported in patent EP0125508A1, “Method for stabilizing a detrusor muscle while increasing detrusor muscle strength” (United Pharmaceuticals, Inc., priority 1983, dated 1984).
# Where a name gives a salt, the structure may show the parent alone.
# Assays:
# Stable Detrusor [1] = test: Urodynamic studies, filling and voiding phase of the bladder (water cystometrogram), stable detrusor; assay type: in vivo, women; conditions: for Compliance (compliance of the detrusor muscle) / P (maxflow): bladder pressure at maximum urine flow rate / P (opening): bladder pressure at the patient's initiating urination / P (voiding): bladder voiding pressure / Q (max) / R.U. / V (1st sense): bladder urine volume at the patient's first sensation to urinate / V (Urge): bladder urine volume at the patient's urge to urinate / V (max): maximum bladder urine volume: stable detrusor
# Description: (§1) Urodynamic studies were performed on 20 women having a mean age of 28 + 7 years. These studies incorporated water cystometrogram, UPP, and isometric tests. Control urodynamic testing without use of thiphenamil hydrochloride was undertaken in all subjects. The effects of a single dose of 400 mg and a single dose of 800 mg of thiphenamil hydrochloride given orally were compared with the control value for each subject. Specifically, the measurements taken included bladder capacity, residual volume, maximum detrusor voiding pressure, and isometric contractility during bladder filling and at bladder capacity. '
# (§2) Referring to Figure 1, data is shown taken from a subject having normal detrusor activity. The parameters measured include isometric detrusor pressure during bladder filling and while voiding under control conditions, EMG and . urine flow rate. Typical segments of a polygraph recording were obtained at a bladder volume of 100 ml (segment A), 200 ml (segment B) and the voiding at 30C ml (segment C). The parameters shown are detrusor pressure in cm H20, EMG (electromyogram) recording showing muscle electrical activity and urine flow rate.
# Stable Detrusor [2] = test: Isometric test: maximum isometric pressure as a function of bladder volume, stable detrusor; assay type: in vivo, women; conditions: for I (100): maximum bladder isometric pressure / I (200): maximum bladder isometric pressure / I (300): maximum bladder isometric pressure / I (400): maximum bladder isometric pressure / I (500): maximum bladder isometric pressure / V (1st sense): bladder urine volume at the patient's first sensation to urinate / V (Max): maximum bladder urine volume / V (Urge): bladder urine volume at the patient's urge to urinate: stable detrusor; for I (100): maximum bladder isometric pressure: bladder urine volume 100 ml; for I (200): maximum bladder isometric pressure: bladder urine volume 200 ml; for I (300): maximum bladder isometric pressure: bladder urine volume 300 ml; for I (400): maximum bladder isometric pressure: bladder urine volume 400 ml; for I (500): maximum bladder isometric pressure: bladder urine volume 500 ml; for V (1st sense): bladder urine volume at the patient's first sensation to urinate / V (Max): maximum bladder urine volume / V (Urge): bladder urine volume at the patient's urge to urinate: isometric test
# Description: as §1, §2
# Unstable Detrusor [3] = test: Urodynamic studies, filling and voiding phase of the bladder (water cystometrogram), unstable detrusor; assay type: in vivo, women; conditions: for Compliance (compliance of the detrusor muscle) / P (maxflow): bladder pressure at maximum urine flow rate / P (opening): bladder pressure at the patient's initiating urination / P (voiding): bladder voiding pressure / Q (max) / R.U. / V (1st sense): bladder urine volume at the patient's first sensation to urinate / V (Urge): bladder urine volume at the patient's urge to urinate / V (max): maximum bladder urine volume: unstable detrusor
# Description: as §1
# Figure 3 illustrates the voiding phase of the cystometrogram for a subject having an unstable detrusor muscle. Spontaneous detrusor contractions are shown to precipitate voiding at a bladder urine volume of about 210 ml. The onset of voiding is associated with involuntary contractions (series of detrusor pressure peaks between 0 and 50 seconds) that are suppressed by increased EMG activity.
# Unstable Detrusor [4] = test: Isometric test: maximum isometric pressure as a function of bladder volume, unstable detrusor; assay type: in vivo, women; conditions: for I (100): maximum isometric pressure: bladder urine volume 100 ml; for I (200): maximum isometric pressure: bladder urine volume 200 ml; for I (300): maximum isometric pressure: bladder urine volume 300 ml
# Description: as §1
# Hydrolysis in water = assay type: physicochemical
# [5] = one subject with unstable detrusor, 400 mg dose 30 minutes prior to recording
# [6] = isometric test, single oral dose 400 mg
smiles,measurement,setting,value
"CCN(CC)CCSC(=O)C(c1ccccc1)c1ccccc1 [Thiphenamil Hydrochloride, thiphenamil hydrochloride]",detrusor muscle contractility,"Stable Detrusor [1]; decrease from control 41.3 + 15.3, dose not stated in the sentence (matches P (voiding), 400 mg, Table 1)",37.2 + 16.0 cm H20
same,Compliance (compliance of the detrusor muscle),Stable Detrusor [1]; single oral dose 400 mg,0.002±0.001 liters/cm H2O
same,P (maxflow): bladder pressure at maximum urine flow rate,Stable Detrusor [1]; single oral dose 400 mg,37.9±9.1 (19) cm H2O
same,P (opening): bladder pressure at the patient's initiating urination,Stable Detrusor [1]; single oral dose 400 mg,25.4±13.3 (19) cm H2O
same,P (voiding): bladder voiding pressure,Stable Detrusor [1]; single oral dose 400 mg,37.2±16 (20) cm H2O
same,Q (max),Stable Detrusor [1]; single oral dose 400 mg,16.7±4.4 (21)
same,R.U.,Stable Detrusor [1]; single oral dose 400 mg,132.3±121.4 (18)
same,V (1st sense): bladder urine volume at the patient's first sensation to urinate,Stable Detrusor [1]; single oral dose 400 mg,314±99 (19) ml
same,V (Urge): bladder urine volume at the patient's urge to urinate,Stable Detrusor [1]; single oral dose 400 mg,551±195 (19) ml
same,V (max): maximum bladder urine volume,Stable Detrusor [1]; single oral dose 400 mg,581+155 (19) ml
same,Compliance (compliance of the detrusor muscle),Stable Detrusor [1]; single oral dose 800 mg,0.0025±0.003 liters/cm H2O
same,P (maxflow): bladder pressure at maximum urine flow rate,Stable Detrusor [1]; single oral dose 800 mg,49.5±14.8 (11) cm H2O
same,P (opening): bladder pressure at the patient's initiating urination,Stable Detrusor [1]; single oral dose 800 mg,39.1±12.2 (7) cm H2O
same,P (voiding): bladder voiding pressure,Stable Detrusor [1]; single oral dose 800 mg,65.1±19.1 (11) cm H2O
same,Q (max),Stable Detrusor [1]; single oral dose 800 mg,27.7±9.0 (8)
same,R.U.,Stable Detrusor [1]; single oral dose 800 mg,95.0±72.2 (9)
same,V (1st sense): bladder urine volume at the patient's first sensation to urinate,Stable Detrusor [1]; single oral dose 800 mg,298±67.6 (11) ml
same,V (Urge): bladder urine volume at the patient's urge to urinate,Stable Detrusor [1]; single oral dose 800 mg,381±61 (11) ml
same,V (max): maximum bladder urine volume,Stable Detrusor [1]; single oral dose 800 mg,436±165 (11) ml
same,bladder capacity,Stable Detrusor [1]; versus control,no significant increase
same,detrusor pressures in segments A and B (Figure 2 versus Figure 1),"Stable Detrusor [2]; one subject with normal detrusor, 400 mg dose, bladder volume 100 ml and 200 ml",considerably higher
same,isometric detrusor pressure during the filling phase of the bladder,"Stable Detrusor [2]; significant increase from control 36.1 + 26.9, dose not stated in the sentence (matches I (100), 400 mg, Table II)",63.0 + 27.1 cm 1120
same,I (100): maximum bladder isometric pressure,Stable Detrusor [2]; single oral dose 400 mg,63.0±27.1 (13) cm H2O
same,I (100): maximum bladder isometric pressure,Stable Detrusor [2]; single oral dose 800 mg,74±34.6 (6) cm H2O
same,I (200): maximum bladder isometric pressure,Stable Detrusor [2]; single oral dose 400 mg,51.9±26.0 (14) cm H2O
same,I (200): maximum bladder isometric pressure,Stable Detrusor [2]; single oral dose 800 mg,65.0±37.8 (7) cm H2O
same,I (300): maximum bladder isometric pressure,Stable Detrusor [2]; single oral dose 400 mg,50.3±25.8 (12) cm H2O
same,I (300): maximum bladder isometric pressure,Stable Detrusor [2]; single oral dose 800 mg,63.4±26.2 (7) cm H2O
same,I (400): maximum bladder isometric pressure,Stable Detrusor [2]; single oral dose 400 mg,46.6±19.5 (10) cm H2O
same,I (400): maximum bladder isometric pressure,Stable Detrusor [2]; single oral dose 800 mg,50.0±27.5 (6) cm H2O
same,I (500): maximum bladder isometric pressure,Stable Detrusor [2]; single oral dose 400 mg,30.1±15.6 (8) cm H2O
same,I (500): maximum bladder isometric pressure,Stable Detrusor [2]; single oral dose 800 mg,34.0±14.4 (2) cm H2O
same,V (1st sense): bladder urine volume at the patient's first sensation to urinate,Stable Detrusor [2]; single oral dose 400 mg,358±106 (18) ml
same,V (Max): maximum bladder urine volume,Stable Detrusor [2]; single oral dose 400 mg,544±151 (11) ml
same,V (Urge): bladder urine volume at the patient's urge to urinate,Stable Detrusor [2]; single oral dose 400 mg,467±94 (18) ml
same,V (1st sense): bladder urine volume at the patient's first sensation to urinate,Stable Detrusor [2]; single oral dose 800 mg,253.3±96.9 (6) ml
same,V (Max): maximum bladder urine volume,Stable Detrusor [2]; single oral dose 800 mg,425±82 (10) ml
same,V (Urge): bladder urine volume at the patient's urge to urinate,Stable Detrusor [2]; single oral dose 800 mg,385±74.6 (7) ml
same,"detrusor instability (range of fluctuations of the EMG tracing, Figure 4)",Unstable Detrusor [3]; [5],nearly eliminated
same,"height of the detrusor pressure peaks before voiding, Figure 4 versus Figure 3",Unstable Detrusor [3]; [5],general decrease in the height of those peaks
same,"pattern of detrusor instability (series of increasing detrusor pressure peaks leading up to voiding), Figure 4 versus Figure 3",Unstable Detrusor [3]; [5],shifted significantly to the right
same,voiding (Figure 4),Unstable Detrusor [3]; [5],voluntary and complete
same,Compliance (compliance of the detrusor muscle),Unstable Detrusor [3]; single oral dose 400 mg,0.002±0.001 liters/cm H2O
same,P (maxflow): bladder pressure at maximum urine flow rate,Unstable Detrusor [3]; single oral dose 400 mg,44.0±4.4 (3) cm H2O
same,P (opening): bladder pressure at the patient's initiating urination,Unstable Detrusor [3]; single oral dose 400 mg,30±12 (4) cm H2O
same,P (voiding): bladder voiding pressure,Unstable Detrusor [3]; single oral dose 400 mg,47±7 (4) cm H2O
same,Q (max),Unstable Detrusor [3]; single oral dose 400 mg,15±1.9
same,R.U.,Unstable Detrusor [3]; single oral dose 400 mg,140±85 (2)
same,V (1st sense): bladder urine volume at the patient's first sensation to urinate,Unstable Detrusor [3]; single oral dose 400 mg,270±99 (3) ml
same,V (Urge): bladder urine volume at the patient's urge to urinate,Unstable Detrusor [3]; single oral dose 400 mg,345 ± 191 mL
same,V (max): maximum bladder urine volume,Unstable Detrusor [3]; single oral dose 400 mg,440±57 (2) ml
same,Compliance (compliance of the detrusor muscle),Unstable Detrusor [3]; single oral dose 800 mg,0.0027±0.0004 liters/cm H2O
same,P (maxflow): bladder pressure at maximum urine flow rate,Unstable Detrusor [3]; single oral dose 800 mg,55.3±7.0 (3) cm H2O
same,P (opening): bladder pressure at the patient's initiating urination,Unstable Detrusor [3]; single oral dose 800 mg,44±11.3 (2) cm H2O
same,P (voiding): bladder voiding pressure,Unstable Detrusor [3]; single oral dose 800 mg,52.7±6.4 (3) cm H2O
same,Q (max),Unstable Detrusor [3]; single oral dose 800 mg,18.0±1.8 (3)
same,R.U.,Unstable Detrusor [3]; single oral dose 800 mg,27.5±3.5 (3)
same,V (1st sense): bladder urine volume at the patient's first sensation to urinate,Unstable Detrusor [3]; single oral dose 800 mg,275±35 (3) ml
same,V (Urge): bladder urine volume at the patient's urge to urinate,Unstable Detrusor [3]; single oral dose 800 mg,325±35 (2) ml
same,V (max): maximum bladder urine volume,Unstable Detrusor [3]; single oral dose 800 mg,499±177 (3) ml
same,I (100): maximum isometric pressure,Unstable Detrusor [4]; single oral dose 400 mg,73±39 (14) cm H2O
same,I (100): maximum isometric pressure,Unstable Detrusor [4]; single oral dose 800 mg,78±53 cm H2O
same,I (200): maximum isometric pressure,Unstable Detrusor [4]; single oral dose 400 mg,44±14 (3) cm H2O
same,I (200): maximum isometric pressure,Unstable Detrusor [4]; single oral dose 800 mg,62±57 cm H2O
same,I (300): maximum isometric pressure,Unstable Detrusor [4]; single oral dose 400 mg,75±5 (2) cm H2O
same,I (300): maximum isometric pressure,Unstable Detrusor [4]; single oral dose 800 mg,96 (1) cm H2O
same,V (1st sense): bladder urine volume at the patient's first sensation to urinate,Unstable Detrusor [4]; [6],270+99 (4) ml
same,V (Urge): bladder urine volume at the patient's urge to urinate,Unstable Detrusor [4]; [6],355±53 (4) ml
same,V (Urge): bladder urine volume at the patient's urge to urinate,"Unstable Detrusor [4]; isometric test, single oral dose 800 mg",423 ± 27.5 mL
same,stability in water (hydrolysis),Hydrolysis in water,slowly hydrolizes in water
